The numbers were not newly measured in patent US20110027361A1, “EXTENDED RELEASE DOSAGE FORM OF PALIPERIDONE” (TORRENT PHARMACEUTICALS LTD., priority 2008, published 2011), which cites them from elsewhere.

The conditions of data set [1]: in vivo.

`Cc1nc2n(c(=O)c1CCN1CCC(c3noc4cc(F)ccc34)CC1)CCCC2O` (stereo not shown) [Paliperidone]: for the setting “0.1N HCl”, the “solubility in 0.1N HCl” value is listed as “sparingly soluble”. In addition, the “solubility in methylene chloride” value (methylene chloride) is reported as “sparingly soluble”. Besides, the solubility in water entry (water) is recorded as “practically insoluble”. Besides, in data set [1], the terminal elimination half-life result is “approximately 23 hours”.
